The term IC50 denotes the concentration needed to halve the response being measured. For orientation: half-life means how long it takes for the measured level to halve. In general, AUC(0-t) refers to the area under the concentration-time curve up to a stated or last time point. As usually defined, the NOAEL is the highest dose or exposure tested at which no adverse effect was seen. In general, Kp refers to tissue or fluid exposure divided by exposure in the circulation. In general, bioavailability refers to the share of a dose that reaches the circulation, judged against a reference dose that is usually intravenous.

Data on one compound can be found in ChEMBL document CHEMBL5584307, “Discovery of a Potent and Orally Bioavailable Xanthine Oxidase/Urate Transporter 1 Dual Inhibitor as a Potential Treatment for Hyperuricemia and Gout” (J Med Chem, 2024).

Data set [1] can be described thus: Toxicity in rat assessed as mucosal necrosis in pylorus at 120 mg/kg/day for 28 days by H and E staining based analysis. The format is organism-based. Particulars: in vivo, 672 h, time 28 day.
In the next data set the target is Cytochrome P450 2C9 (Homo sapiens, UniProt P11712). As to the kind of experiment: Inhibition of CYP2C9 in human liver microsomes in presence of NADPH by LC-MS/MS analysis. The format is ADME, Microsome. Background: Microsomes from liver hold many membrane-bound enzymes, among them those of drug oxidation.
Sequence of Cytochrome P450 2C9 (P11712 whole entry): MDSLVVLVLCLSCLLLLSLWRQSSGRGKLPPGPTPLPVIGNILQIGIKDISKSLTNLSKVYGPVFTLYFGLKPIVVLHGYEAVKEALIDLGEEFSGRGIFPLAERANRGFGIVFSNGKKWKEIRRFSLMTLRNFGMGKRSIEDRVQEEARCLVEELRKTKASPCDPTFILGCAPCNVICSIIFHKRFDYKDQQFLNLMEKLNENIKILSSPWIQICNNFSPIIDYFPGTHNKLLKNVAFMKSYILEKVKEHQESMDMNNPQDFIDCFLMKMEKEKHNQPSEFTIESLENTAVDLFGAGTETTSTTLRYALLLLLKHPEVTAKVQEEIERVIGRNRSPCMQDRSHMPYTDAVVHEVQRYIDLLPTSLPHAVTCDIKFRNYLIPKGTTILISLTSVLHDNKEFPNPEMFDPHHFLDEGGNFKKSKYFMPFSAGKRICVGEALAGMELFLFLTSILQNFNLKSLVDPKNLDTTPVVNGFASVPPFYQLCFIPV
Data set [2] can be described thus: Stability in dog liver microsomes assessed as half life at 1 uM measured upto 60 mins in presence of NADPH by LC-MS/MS analysis. Type of data set: ADME, Canis lupus familiaris, Microsome.
The nature of data set [3]: Toxicity in rat assessed as single-cellular necrosis of mucosal epithelium in colon at 120 mg/kg/day for 28 days by H and E staining based analysis. The format is organism-based. The settings on record: in vivo, 672 h, time 28 day.
Data set [4] can be described thus: AUC (last) in Cynomolgous monkey at 1 mg/kg, iv measured upto 24 hrs by LC-MS/MS analysis. The format is ADME, organism-based, Macaca fascicularis. The settings on record: cynomolgus monkey, in vivo.
The nature of data set [5]: Half life in Beagle dog at 5 mg/kg, po measured upto 24 hrs by LC-MS/MS analysis. Type of data set: ADME, organism-based, Canis lupus familiaris. The settings on record: in vivo.
The nature of data set [6]: Stability in monkey liver microsomes assessed as half life at 1 uM measured upto 60 mins in presence of NADPH by LC-MS/MS analysis. Type of data set: ADME, Macaca mulatta, Microsome. The settings on record: rhesus monkey.
Data set [7] is described as follows: Toxicity in rat assessed as acute inflammation in pylorus at 120 mg/kg/day for 28 days by H and E staining based analysis. Type of data set: organism-based. Particulars: in vivo, 672 h, time 28 day.
Data set [8] can be described thus: Half life in Tufted capuchin monkey at 100 mg/kg, po measured for 24 hrs by LC-MS/MS analysis. Type of data set: ADME, organism-based. The settings on record: sapajus apella, in vivo.
Data set [9] can be described thus: AUC (last) in Cynomolgous monkey at 5 mg/kg, po measured upto 24 hrs by LC-MS/MS analysis. The settings on record: cynomolgus monkey, in vivo. Type of data set: ADME, organism-based, Macaca fascicularis.
Data set [10] in a line: Toxicity in rat administered daily for 28 days. The settings on record: in vivo, time 28 day.
Data set [11] is described as follows: Ratio of drug concentration in Sprague-Dawley rat liver to plasma at 3 mg/kg, po measured for 24 hrs by LC-MS/MS analysis. Type of data set: ADME, organism-based. The settings on record: liver and plasma.
Data set [12] can be described thus: Oral bioavailability in Cynomolgous monkey at 5 mg/kg measured upto 24 hrs by LC-MS/MS analysis. The settings on record: cynomolgus monkey, in vivo. The format is ADME, organism-based, Macaca fascicularis.
The nature of data set [13]: Volume of distribution at steady state in Cynomolgous monkey at 5 mg/kg, po or 1 mg/kg, iv measured upto 24 hrs by LC-MS/MS analysis. Type of data set: ADME, organism-based, Macaca fascicularis. Particulars: cynomolgus monkey, in vivo.
The target of another data set is T1, Cytochrome P450 2C8 (Homo sapiens, UniProt P10632).
T1 sequence (P10632 whole entry): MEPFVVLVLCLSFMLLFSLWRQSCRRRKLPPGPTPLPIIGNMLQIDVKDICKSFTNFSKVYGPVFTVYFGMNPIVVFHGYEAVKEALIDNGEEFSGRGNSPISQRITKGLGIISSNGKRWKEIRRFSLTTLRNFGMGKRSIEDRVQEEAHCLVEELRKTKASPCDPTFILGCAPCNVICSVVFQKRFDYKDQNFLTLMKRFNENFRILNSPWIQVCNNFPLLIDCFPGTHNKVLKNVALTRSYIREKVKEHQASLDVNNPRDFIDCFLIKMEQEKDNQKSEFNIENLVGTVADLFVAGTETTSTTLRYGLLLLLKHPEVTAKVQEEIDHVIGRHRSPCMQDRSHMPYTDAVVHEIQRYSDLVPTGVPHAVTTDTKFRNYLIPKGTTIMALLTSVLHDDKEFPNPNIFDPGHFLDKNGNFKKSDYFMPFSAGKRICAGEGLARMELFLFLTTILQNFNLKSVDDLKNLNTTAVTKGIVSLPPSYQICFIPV
As to the kind of experiment: Inhibition of CYP2C8 in human liver microsomes in presence of NADPH by LC-MS/MS analysis. The format is ADME, Microsome.

The nature of data set [14]: Toxicity in cynomolgous monkey assessed as drug tolerance at 30 to 200 mg/kg/day for 28 days consecutively. Type of data set: organism-based, Macaca fascicularis. Particulars: cynomolgus monkey, in vivo, 672 h; dose 30-200 mg/kg/day, time 28 day.
Another data set concerns the target T2, Cytochrome P450 2B6 (Homo sapiens, UniProt P20813).
T2 sequence (P20813 whole entry): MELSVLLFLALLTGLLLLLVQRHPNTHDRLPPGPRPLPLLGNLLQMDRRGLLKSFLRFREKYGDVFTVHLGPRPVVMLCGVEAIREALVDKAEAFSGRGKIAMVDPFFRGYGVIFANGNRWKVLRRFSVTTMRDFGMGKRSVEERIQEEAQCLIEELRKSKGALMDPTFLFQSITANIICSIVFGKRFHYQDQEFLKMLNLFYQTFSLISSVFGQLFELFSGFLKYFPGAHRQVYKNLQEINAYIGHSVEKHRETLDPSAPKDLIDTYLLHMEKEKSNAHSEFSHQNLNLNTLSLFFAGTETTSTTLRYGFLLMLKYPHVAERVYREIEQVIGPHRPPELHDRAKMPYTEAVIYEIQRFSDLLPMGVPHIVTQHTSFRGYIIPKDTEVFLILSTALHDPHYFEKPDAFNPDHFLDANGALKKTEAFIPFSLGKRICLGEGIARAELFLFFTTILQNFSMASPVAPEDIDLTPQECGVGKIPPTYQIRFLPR
As to the kind of experiment: Induction of CYP2B6 in human hepatocytes at 50 uM incubated for 48 hrs with media containing compound renewal every 24 hrs followed by substrate addition measured after 30 mins by LC-MS/MS analysis. Particulars: 48.5 h. Type of data set: ADME, cell-based, Hepatocyte.

In the next data set the test system is Sapajus apella. As to the kind of experiment: Urate lowering effect in Tufted capuchin monkey assessed as fraction excretion of uric acid at 100 mg/kg/day, po qd for 3 days consecutively relative to control. Type of data set: functional. Particulars: time 3 day.
A short description of data set [15]: Genotoxicity in Salmonella typhimurium TA102 by Ames test. Type of data set: toxicity. Particulars: salmonella enterica subsp. enterica serovar typhimurium. In general terms: The Ames test detects mutagens through reverse mutation in bacteria.

The structures appear in SMILES notation.

For `N#Cc1cc(-c2ccc(C(=O)O)c(O)c2)c2oc(F)cc2c1`, the Activity entry is “Toxic” in data set [1]; “Toxic” in data set [3]; “Toxic” in data set [7]; “Non-Toxic” in data set [14]; less than 20% on Cytochrome P450 2B6; 23.55% in the data set on Sapajus apella. In addition, the Activity entry in data set [15] is “Non-Toxic”. Besides, the 50% inhibitory concentration (IC50) came out at 2780 nM at Cytochrome P450 2C9 and 12.2 µM at Cytochrome P450 2C8. Further, the half-life at 1 µM was found to be 1260 min in data set [2] and 172 min in data set [6]. In addition, the AUC(0-t) at 24 h in [4] was 16100 ng·h/mL; in data set [9], 34200 ng·h/mL. In addition, the half-life in [5] was 169 min; in [8], 193 min. Further, the no observed adverse effect level (NOAEL) at 672 h in data set [10] is 60 mg/kg/day. Besides, the Kp at 24 h in [11] was 1.17. In data set [12], the bioavailability amounted to 42.4%. The compound further showed a Vdss in data set [13] of 0.297 L/kg.
